How the values were obtained:
H9c2 cells = assay: Cytotoxicity on H9c2 cells (CCK-8); assay type: cell-based, rat; details: H9c2 cells, n=3; for inhibition at 25 µM / inhibition at 50 µM / inhibition at 100 µM: Rattus norvegicus, read-out: Inhibition rate
Procedure: (§1) Rat myocardial H9c2 cells (purchased from China Infrastructure of Cell Line Resources, Institute of Basic Medical Sciences, Chinese Academy of Medical Sciences) were cultured in DMEM supplemented with 10% fetal bovine serum (FBS), Penicillin (100 U/mL), and Streptomycin (100 μg/mL) at 37 °C under a humidified atmosphere of 5% CO2 and 95% air. For OGD/R treatment, H9c2 cells were cultured in glucose-free DMEM under hypoxic conditions (95%N2 + 5%CO2) for 4 h at 37 °C followed by complete medium under normal conditions with air (95%) and CO2 (5%) for 2 h. A control group was maintained under normal culture conditions (with glucose-containing DMEM and 5% CO2) without undergoing OGD/R treatment. CCK8 was used to assess cell viability. After treatment, H9c2 cells were seeded in 96-well plates, with each well supplemented with 10 μL of CCK-8 solution and then incubated for 1 h. Finally, the absorbance at 450 nm was detected by a microplate reader (Model […] 200 PRO, TECAN, Grodig, Austria).
When evaluating the cytotoxicities of the absorbed compounds, the H9c2 cells were seeded in 96-well plates at a density of 1 × 10^4 cells/well; when cells reached 80% confluence, […] Afterward, the protective effects were verified by assessing the cell viability when treating with different concentrations (1, 10, 25, 50, and 100 μM) of the analytes prior to OGD/R treatment.

[1] = Concentrations of 24 analytes in QSG treated plasma (Table S5); details: for Exposure level in vivo (in words) / Concentration: QSG treated plasma; for Exposure level in vivo (in words): Table S5; for concentration at 0.5 h / concentration at 1 h / concentration at 0.08 h / concentration at 0.17 h / concentration at 2 h / concentration at 4 h / concentration at 8 h / concentration at 12 h: Sprague Dawley, rat, 7 g/kg; for Concentration: n = 5
OGD/R-induced H9c2 cells = assay: Protective effect on OGD/R-induced H9c2 cells (CCK-8 cell viability); assay type: cell-based, rat; details: 1, 10, 25, 50 and 100 μM prior to OGD/R, vs model group
Procedure: as §1
When evaluating the cytotoxicities of the absorbed compounds, the H9c2 cells were seeded in 96-well plates at a density of 1 × 10^4 cells/well; when cells reached 80% confluence, they were treated with 25 and 50 μM of the 24 analytes to screen the non-toxic concentration ranges. Afterward, the protective effects were verified by assessing the cell viability when treating with different concentrations (1, 10, 25, 50, and 100 μM) of the analytes prior to OGD/R treatment.

[2] = Pharmacokinetic study in rats after oral administration of QSG
Procedure: Ion source parameters were set as follows: temperatures of drying gas and sheath gas were 300 °C and 300 °C, flow rates of drying gas and sheath gas were 7 L/min and 11 L/min, the nebulizer was set at 35 psig, capillary voltage was 3500 V (−), and nozzle voltage was 2000 V (−). […] Chromatographic separations were conducted on a ZORBAX Eclipse Plus C18 column (3.0 × 50 mm, 1.8 μm, Agilent Technologies, California, USA). The mobile phase was composed of 0.1% aqueous FA (A, (v/v)) and 0.1% formic acid methanol (B), the flow rate was set at 0.5 mL/min, and the column oven was maintained at 40 °C.
Protein precipitation was carried out for each time point for plasma samples, calibration samples, or QC samples by introducing four volumes of acetonitrile containing 400 ng/mL of icariin. Then, 10 μL 10% aqueous ascorbic acid (v/v) was spiked into each sample to prevent the oxidation of phenolic compounds. […] An aliquot (450 μL) of the supernatant was transferred and dried under nitrogen vacuum.
The pharmacokinetic parameters were calculated by DAS software (version 2.0) for a non-compartmental analysis.

[3] = rat plasma, single oral 7 g/kg QSG, n = 6

Row | Compound | inhibition at 25 µM (H9c2 cells; 25 μM) [%] | inhibition at 50 µM (H9c2 cells; 50 μM) [%] | inhibition at 100 µM (H9c2 cells; 100 μM) [%] | H9c2 cell survival after OGD/R (in words) (OGD/R-induced H9c2 cells) | Inhibition rate (H9c2 cells; 25 μM) [%] | Inhibition rate (H9c2 cells; 50 μM) [%] | Inhibition rate (H9c2 cells; 100 μM) [%] | Concentration ([1]; 0.5 h) [ng/mL] | Concentration ([1]; 1 h) [ng/mL] | further results
1 | COC(=O)C1=CO[C@@H](O[C@@H]2O[C@H](CO)[C@@H](O)[C@H](O)[C@H]2O)[C@@H]2[C@@H](C)[C@H](O)C[C@H]12 [7-epi-loganin] | 2.8 ± 0.9 | 7.1 ± 4.3 | 10.3 ± 3.5 | significantly improve H9c2 cell survival rates | – | – | – | – | – | Exposure level in vivo (in words) [1]: relatively lower exposure levels; concentration at 0.5 h ([1]; plasma, oral): 1.73 ± 0.49 ng/mL; concentration at 1 h ([1]; plasma, oral): 1.5 ± 0.298 ng/mL
2 | COC[C@]12O[C@H]1[C@@H](O)[C@@H]1C=CO[C@@H](O[C@@H]3O[C@H](CO)[C@@H](O)[C@H](O)[C@H]3O)[C@@H]12 [10-methoxyl catalpol] | – | – | – | – | 2.8 ± 0.9 | 5.1 ± 4.3 | 9.1 ± 4.2 | 2.315 ± 0.283 | 1.293 ± 0.135 | –
3 | COc1ccc(CCO[C@@H]2O[C@H](CO[C@@H]3OC[C@H](O)[C@H](O)[C@H]3O)[C@@H](OC(=O)/C=C/c3ccc(O)c(OC)c3)[C@H](O[C@@H]3O[C@@H](C)[C@H](O)[C@@H](O)[C@H]3O)[C@H]2O)cc1O [Angoroside C] | – | – | – | significantly improve H9c2 cell survival rates | 3.6 ± 4.5 | 12.7 ± 5.1 | 18.7 ± 1.1 | 4.290 ± 1.023 | 3.109 ± 0.501 | Concentration ([1]; 2 h): 1.029 ± 0.203 ng/mL; Exposure level in vivo (in words) [1]: relatively lower exposure levels
4 | COc1ccc(-c2coc3cc(O[C@@H]4O[C@H](CO)[C@@H](O)[C@H](O)[C@H]4O)ccc3c2=O)cc1O [Calycosin-7-O-glucoside, Calycosin-7-O-D-glucoside] | – | – | – | – | -1.2 ± 3.5 | 7.8 ± 6.4 | 11.8 ± 6.1 | 8.612 ± 0.681 | 3.192 ± 1.624 | Concentration ([1]; 0.08 h): 1.161 ± 0.988 ng/mL; Concentration ([1]; 0.17 h): 2.081 ± 1.576 ng/mL; Concentration ([1]; 2 h): 3.096 ± 2.601 ng/mL; Concentration ([1]; 4 h): 1.198 ± 1.103 ng/mL; Concentration ([1]; 8 h): 1.241 ± 0.963 ng/mL; Concentration ([1]; 12 h): 0.536 ± 0.271 ng/mL
5 | COc1ccc(-c2coc3cc(O)ccc3c2=O)cc1O [Calycosin] | 6.8 ± 3.9 | 6.3 ± 8.3 | 9.3 ± 4.2 | – | – | – | – | – | – | concentration at 0.08 h ([1]; plasma, oral): 0.966 ± 0.737 ng/mL; concentration at 0.17 h ([1]; plasma, oral): 2.15 ± 0.363 ng/mL; concentration at 0.5 h ([1]; plasma, oral): 2.51 ± 0.672 ng/mL; concentration at 1 h ([1]; plasma, oral): 1.7 ± 0.563 ng/mL; concentration at 2 h ([1]; plasma, oral): 0.825 ± 0.375 ng/mL; concentration at 4 h ([1]; plasma, oral): 0.589 ± 0.46 ng/mL; concentration at 8 h ([1]; plasma, oral): 0.737 ± 0.203 ng/mL; concentration at 12 h ([1]; plasma, oral): 0.647 ± 0.195 ng/mL
6 | COc1ccc(-c2coc3cc(O[C@@H]4O[C@H](CO)[C@@H](O)[C@H](O)[C@H]4O)ccc3c2=O)cc1 [Formononetin-7-O-glucoside, Formononetin-7-O-D-glucoside] | – | – | – | – | 0.8 ± 0.9 | 9.1 ± 4.3 | 11.1 ± 2.3 | – | – | –
7 | COC[C@@]12CC[C@H](OC)[C@]34C(C([C@H](OC)[C@H]13)[C@]1(OC(C)=O)[C@H]3[C@@H](OC(=O)c5ccccc5)[C@](O)(C[C@H]34)[C@@H](OC)[C@@H]1O)N(C)C2 [Hypaconitine] | 13.7 ± 4.1 | 20.8 ± 3.2 | 32.8 ± 1.2 | – | – | – | – | – | – | concentration at 0.08 h ([1]; in vivo): 0.048 ± 0.019 ng/mL; concentration at 0.17 h ([1]; in vivo): 0.202 ± 0.096 ng/mL; concentration at 0.5 h ([1]; in vivo): 0.308 ± 0.041 ng/mL; concentration at 1 h ([1]; in vivo): 0.34 ± 0.066 ng/mL; concentration at 2 h ([1]; in vivo): 0.331 ± 0.081 ng/mL; concentration at 4 h ([1]; in vivo): 0.212 ± 0.084 ng/mL; concentration at 8 h ([1]; in vivo): 0.071 ± 0.049 ng/mL; concentration at 12 h ([1]; in vivo): 0.005 ± 0.013 ng/mL
8 | O=C(/C=C/c1ccc(O[C@@H]2O[C@H](CO)[C@@H](O)[C@H](O)[C@H]2O)cc1)c1ccc(O)cc1O [Isoliquiritin] | -18.3 ± 3.6 | 8.5 ± 2.9 | 13.5 ± 2.3 | – | – | – | – | – | – | concentration at 0.08 h ([1]; in vivo): 0.332 ± 0.496 ng/mL; concentration at 0.17 h ([1]; in vivo): 1.24 ± 0.874 ng/mL; concentration at 0.5 h ([1]; in vivo): 2.54 ± 0.684 ng/mL; concentration at 1 h ([1]; in vivo): 1.31 ± 0.788 ng/mL; concentration at 2 h ([1]; in vivo): 0.456 ± 0.573 ng/mL; concentration at 4 h ([1]; in vivo): 0.075 ± 0.309 ng/mL; concentration at 8 h ([1]; in vivo): 0.078 ± 0.159 ng/mL; concentration at 12 h ([1]; in vivo): 0.158 ± 0.323 ng/mL
9 | O=C1C[C@@H](c2ccc(O)cc2)Oc2cc(O)ccc21 [Liquiritigenin] | – | – | – | – | -4.4 ± 2.2 | 2.3 ± 3.3 | 8.5 ± 3.6 | 4.378 ± 0.959 | 3.255 ± 1.246 | Concentration ([1]; 0.08 h): 1.163 ± 0.835 ng/mL; Concentration ([1]; 0.17 h): 3.082 ± 0.977 ng/mL; Concentration ([1]; 2 h): 2.336 ± 1.150 ng/mL; Concentration ([1]; 4 h): 2.064 ± 0.888 ng/mL; Concentration ([1]; 8 h): 2.239 ± 1.209 ng/mL; Concentration ([1]; 12 h): 2.987 ± 1.135 ng/mL
10 | O=C1C[C@@H](c2ccc(O[C@@H]3O[C@H](CO)[C@@H](O)[C@H](O)[C@H]3O)cc2)Oc2cc(O)ccc21 [Liquiritin] | -7.4 ± 7.5 | 11.6 ± 0.6 | 17.6 ± 1.2 | – | – | – | – | – | – | concentration at 0.08 h ([1]; plasma, oral): 2.07 ± 1.32 ng/mL; concentration at 0.17 h ([1]; plasma, oral): 11.8 ± 10.9 ng/mL; concentration at 0.5 h ([1]; plasma, oral): 26.8 ± 4.42 ng/mL; concentration at 1 h ([1]; plasma, oral): 17.8 ± 5.29 ng/mL; concentration at 2 h ([1]; plasma, oral): 8.3 ± 2.48 ng/mL; concentration at 4 h ([1]; plasma, oral): 4.02 ± 3.3 ng/mL; concentration at 8 h ([1]; plasma, oral): 2.17 ± 0.609 ng/mL; concentration at 12 h ([1]; plasma, oral): 1.36 ± 2.74 ng/mL
11 | COC(=O)C1=CO[C@@H](O[C@@H]2O[C@H](CO)[C@@H](O)[C@H](O)[C@H]2O)[C@@H]2[C@H](C)O[C@@H](O)C[C@H]12 [Morroniside] | -10.6 ± 7.6 | 2.1 ± 5.6 | 8.1 ± 3.9 | significantly improve H9c2 cell survival rates | – | – | – | – | – | Exposure level in vivo (in words) [1]: relatively lower exposure levels; concentration at 0.5 h ([1]; plasma, oral): 3.05 ± 0.802 ng/mL; concentration at 1 h ([1]; plasma, oral): 2.4 ± 0.829 ng/mL
12 | O=C(/C=C/c1ccc(O)c(O)c1)O[C@@H]1C[C@@](O)(C(=O)O)C[C@@H](O)[C@@H]1O [Neochlorogenic acid] | – | – | – | significantly improve H9c2 cell survival rates | -12.8 ± 1.3 | 3.8 ± 2.2 | 5.7 ± 2.3 | – | – | AUC0→∞ ([2]; Table S12, rats, oral QSG): 1418 ng·h/mL; AUC0→t [2, 3]: 167.1 ± 68.93 ng·h/mL; Cmax [2, 3]: 68.12 ± 4.044 ng/mL; MRT [2, 3]: 6.104 ± 2.911 h; Tmax [2, 3]: 0.398 ± 0.093 h
13 | C=C[C@H]1[C@H](O[C@@H]2O[C@H](CO)[C@@H](O)[C@H](O)[C@H]2O)OC=C(C(=O)O)[C@H]1CC(=O)O [Secologanoside] | – | – | – | – | -15.6 ± 7.9 | 11.0 ± 7.7 | 19.1 ± 3.7 | 4.124 ± 1.235 | 2.135 ± 1.024 | Concentration ([1]; 2 h): 1.274 ± 0.246 ng/mL
14 | C=C[C@H]1[C@H](O[C@@H]2O[C@H](CO)[C@@H](O)[C@H](O)[C@H]2O)OC=C(C(=O)OC)[C@H]1CC(=O)O [Secoxyloganin] | – | – | – | – | 3.5 ± 1.2 | 7.9 ± 3.3 | 9.9 ± 2.7 | – | – | –
15 | Liquiritin apioside | – | – | – | significantly improve H9c2 cell survival rates | -25.2 ± 3.5 | -16.2 ± 3.6 | -6.1 ± 2.5 | – | – | –

Reference: paper PMC12567096, “An Efficacy- and In Vivo Exposure-Oriented Integrated Study to Investigate the Effective Components of Qishen Granule” (Pharmaceuticals, 2025)
